Assay results: paper PMC9203742 (Nature Communications, 2022)
“And” between values parts separate entries of the source, which are not always exact repeats. Equal entries are not always repeated.

How the values were obtained:
WT mGlu1 = target: T1, WT mGlu1 (Rattus norvegicus, UniProt P23385); format: cell-based; further: test concentration or dose not given here
T1 construct: expressed in transfected cells; host or cells: HEK293

mGlu1 P58H/N264H mutant = target: T2, mGlu1 P58H/N264H mutant (Rattus norvegicus, UniProt P23385, N264H/P58H); experiment: Fura-2 Ca2+ imaging in HEK293 cells expressing mGlu1 P58H/N264H; format: cell-based
T2 construct: expressed in transfected cells; host or cells: HEK293
T2 sequence (P23385 19-1199 P58H/N264H): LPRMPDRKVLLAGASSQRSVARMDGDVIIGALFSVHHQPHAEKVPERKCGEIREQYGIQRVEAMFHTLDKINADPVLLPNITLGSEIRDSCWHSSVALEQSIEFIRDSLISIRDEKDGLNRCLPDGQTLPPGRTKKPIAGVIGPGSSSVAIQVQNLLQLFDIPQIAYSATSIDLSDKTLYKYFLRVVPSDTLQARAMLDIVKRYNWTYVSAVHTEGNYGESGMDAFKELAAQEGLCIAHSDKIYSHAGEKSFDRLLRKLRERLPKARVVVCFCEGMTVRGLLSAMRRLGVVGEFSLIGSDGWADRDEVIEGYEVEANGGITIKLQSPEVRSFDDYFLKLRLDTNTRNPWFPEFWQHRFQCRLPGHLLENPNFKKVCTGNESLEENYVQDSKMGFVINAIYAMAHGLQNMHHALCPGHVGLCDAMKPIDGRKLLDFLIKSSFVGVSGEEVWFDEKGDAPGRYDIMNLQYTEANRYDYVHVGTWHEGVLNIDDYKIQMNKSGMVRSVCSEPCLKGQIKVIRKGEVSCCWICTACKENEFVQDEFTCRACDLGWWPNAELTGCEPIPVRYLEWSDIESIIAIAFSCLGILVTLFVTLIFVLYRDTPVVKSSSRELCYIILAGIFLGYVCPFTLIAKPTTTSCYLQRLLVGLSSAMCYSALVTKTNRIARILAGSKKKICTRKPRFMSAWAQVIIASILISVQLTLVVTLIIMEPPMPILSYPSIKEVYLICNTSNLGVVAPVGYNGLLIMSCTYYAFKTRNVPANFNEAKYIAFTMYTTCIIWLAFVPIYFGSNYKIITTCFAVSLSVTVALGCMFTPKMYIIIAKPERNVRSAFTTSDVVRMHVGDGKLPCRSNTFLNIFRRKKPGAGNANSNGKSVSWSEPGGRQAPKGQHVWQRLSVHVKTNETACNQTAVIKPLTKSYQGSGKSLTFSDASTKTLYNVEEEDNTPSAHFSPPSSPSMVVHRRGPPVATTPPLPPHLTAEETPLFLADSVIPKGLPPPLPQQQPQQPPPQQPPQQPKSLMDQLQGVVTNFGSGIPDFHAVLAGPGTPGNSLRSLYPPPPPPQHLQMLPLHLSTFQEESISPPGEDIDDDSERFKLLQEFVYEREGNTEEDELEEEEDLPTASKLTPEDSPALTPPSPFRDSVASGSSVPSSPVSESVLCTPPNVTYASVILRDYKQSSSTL

mGlu1 A59H/N264H mutant = target: T3, mGlu1 A59H/N264H mutant (Rattus norvegicus, UniProt P23385, A59H/N264H); experiment: Fura-2 Ca2+ imaging in HEK293 cells expressing mGlu1 A59H/N264H; format: cell-based
T3 construct: expressed in transfected cells; host or cells: HEK293
T3 sequence (P23385 19-1199 A59H/N264H): as the sequence (P23385 19-1199 P58H/N264H) above, with H40P, A41H counted along it

mGlu1 K61H/N264H mutant = target: T4, mGlu1 K61H/N264H mutant (Rattus norvegicus, UniProt P23385, K61H/N264H); experiment: Fura-2 Ca2+ imaging in HEK293 cells expressing mGlu1 K61H/N264H; format: cell-based
T4 construct: expressed in transfected cells; host or cells: HEK293
T4 sequence (P23385 19-1199 K61H/N264H): as the sequence (P23385 19-1199 P58H/N264H) above, with H40P, K43H counted along it

mGlu1 P57H/N264H mutant = target: T5, mGlu1 P57H/N264H mutant (Rattus norvegicus, UniProt P23385, N264H/P57H); experiment: Fura-2 Ca2+ imaging in HEK293 cells expressing mGlu1 P57H/N264H; format: cell-based
T5 construct: expressed in transfected cells; host or cells: HEK293
T5 sequence (P23385 19-1199 P57H/N264H): as the sequence (P23385 19-1199 P58H/N264H) above, with P39H, H40P counted along it

mGlu1 E60H/N264H mutant = target: T6, mGlu1 E60H/N264H mutant (Rattus norvegicus, UniProt P23385, E60H/N264H); experiment: Fura-2 Ca2+ imaging in HEK293 cells expressing mGlu1 E60H/N264H; format: cell-based
T6 construct: expressed in transfected cells; host or cells: HEK293
T6 sequence (P23385 19-1199 E60H/N264H): as the sequence (P23385 19-1199 P58H/N264H) above, with H40P, E42H counted along it

[1] = tested on: HEK293 cells, vector control; experiment: Fura-2 Ca2+ imaging in HEK293 cells transfected with control vector (Vec); format: cell-based; details: single-cell values #1-#20; on Ca2+ response of individual cells (source data Suppl Fig1), Vec: test concentration or dose not given here
[2] = tested on: mGlu1 construct not given; experiment: Fura-2 Ca2+ imaging in HEK293 cells, source data Suppl Fig1, left group (c0-c8); construct not given; format: cell-based, rat; details: single-cell values, cells #15-#20; left group of third block
From the text: (§1) Supplement 41467_2022_30828_MOESM6_ESM.zip/Ojima et al_source data_Suppl Fig.xlsx, sheet "Suppl Fig1" | column: Glu; NiCl2; CuCl2; ZnCl2; CdCl2; Na2PdCl2; Pd(bpy)

[3] = tested on: HEK293 cells, vector control; experiment: Fura-2 Ca2+ imaging in HEK293 cells transfected with control vector (Vec); format: cell-based; details: Fig.1e; on Ca2+ response of individual cells (source data Suppl Fig1), Vec: test concentration or dose not given here
From the text: Supplement 41467_2022_30828_MOESM6_ESM.zip/Ojima et al_source data_Main Figure.xlsx, sheet "Fig.1e" | column: Vec

mGlu1 A59H/A265H mutant [4] = target: T7, mGlu1 A59H/A265H mutant (Rattus norvegicus, UniProt P23385, A265H/A59H); experiment: Fura-2 Ca2+ imaging in HEK293 cells expressing mGlu1 A59H/A265H; format: cell-based; details: single-cell values
T7 construct: expressed in transfected cells; host or cells: HEK293
T7 sequence (P23385 19-1199 A59H/A265H): as the sequence (P23385 19-1199 P58H/N264H) above, with H40P, A41H, H246N, A247H counted along it

[5] = tested on: mGlu1 construct not given; experiment: Fura-2 Ca2+ imaging in HEK293 cells, source data Suppl Fig1, middle group (c9-c17); construct not given; format: cell-based, rat; details: single-cell values, cells #15-#20; middle group of third block
From the text: as §1

mGlu1 A59H/A265H mutant [6] = target: T7, mGlu1 A59H/A265H mutant; experiment: Fura-2 Ca2+ imaging in HEK293 cells expressing mGlu1 A59H/A265H; format: cell-based; details: Fig.1e
mGlu1 A59H/G266H mutant [7] = target: T8, mGlu1 A59H/G266H mutant (Rattus norvegicus, UniProt P23385, A59H/G266H); experiment: Fura-2 Ca2+ imaging in HEK293 cells expressing mGlu1 A59H/G266H; format: cell-based; details: single-cell values; on Ca2+ response (delta ratio), A59H/G266H: test concentration or dose not given here
T8 construct: expressed in transfected cells; host or cells: HEK293
T8 sequence (P23385 19-1199 A59H/G266H): as the sequence (P23385 19-1199 P58H/N264H) above, with H40P, A41H, H246N, G248H counted along it

[8] = tested on: mGlu1 construct not given; experiment: Fura-2 Ca2+ imaging in HEK293 cells, source data Suppl Fig1, right group (c18-c26); construct not given; format: cell-based, rat; details: single-cell values, cells #15-#20; right group of third block
From the text: as §1

mGlu1 A59H/G266H mutant [9] = target: T8, mGlu1 A59H/G266H mutant; experiment: Fura-2 Ca2+ imaging in HEK293 cells expressing mGlu1 A59H/G266H; format: cell-based; details: Fig.1e

T1 sequence (P23385 19-1199): as the sequence (P23385 19-1199 P58H/N264H) above, with H40P, H246N counted along it

[Cl][Cd][Cl] [CdCl2]
Ca2+ response (delta ratio), WT (WT mGlu1; Fig.1e): 0.005362
Ca2+ response of individual cells (source data Suppl Fig1), WT (WT mGlu1; single-cell values #1-#20, WT): 0.0129 and 0.04075 and 0.009069 and 0.006385 and -0.009131 and -0.006215 and 0.2594 and 0.005608 and -0.007808 and -0.007346 and 0.0007769 and -0.1317 and -0.001 and -0.06408 and -0.004269 and 0.01558 and -0.01997 and 0.01184 and 0.001662 and -0.005277
Ca2+ response (delta ratio), P58H/N264H (mGlu1 P58H/N264H mutant; Fig.1e): -0.005715
Ca2+ response of individual cells (source data Suppl Fig1), P58H/N264H (mGlu1 P58H/N264H mutant; single-cell values #1-#20, P58H/N264H): 0.0003 and -0.006238 and 0.002354 and -0.001808 and -0.01828 and -0.02019 and -0.005077 and -0.009385 and -0.005592 and -0.02068 and -0.009223 and 0.09017 and -0.003262 and -0.06371 and -0.003885 and -0.002246 and -0.002192 and 0.0005231 and -0.03079
Ca2+ response (delta ratio), A59H/N264H (mGlu1 A59H/N264H mutant; Fig.1e): 0.02484
Ca2+ response of individual cells (source data Suppl Fig1), A59H/N264H (mGlu1 A59H/N264H mutant; single-cell values #1-#20, A59H/N264H): 0.2588 and -0.01875 and -0.0009538 and 0.004669 and -0.003354 and -0.0081 and -0.03695 and -0.009438 and -0.004808 and -0.01072 and -0.01152 and -0.03409 and 0.4867 and -0.01683 and -0.02968 and -0.006508 and -0.0288 and -0.01271 and -0.01325 and -0.006908
Ca2+ response (delta ratio), K61H/N264H (mGlu1 K61H/N264H mutant; Fig.1e): 0.01695
Ca2+ response of individual cells (source data Suppl Fig1), K61H/N264H (mGlu1 K61H/N264H mutant; single-cell values, K61H/N264H): 0.003946 and -0.03622 and -0.01614 and -0.01244 and -0.01964 and -0.05083 and -0.008715 and -0.008331 and -0.02813 and 0.002531 and -0.03307 and -0.01172 and 0.5817 and -0.01188
Ca2+ response (delta ratio), P57H/N264H (mGlu1 P57H/N264H mutant; Fig.1e): 0.03091
Ca2+ response of individual cells (source data Suppl Fig1), P57H/N264H (mGlu1 P57H/N264H mutant; single-cell values #1-#20, P57H/N264H): -0.01735 and -0.005323 and -0.01104 and -0.01126 and -0.0097 and -0.003008 and -0.01663 and -0.0067 and -0.01865 and 0.6823 and 0.01155 and -0.0096 and 0.03494 and -0.09688 and -0.01634 and 0.024 and 0.009592 and -0.004469 and 0.09844 and -0.01566
Ca2+ response (delta ratio), E60H/N264H (mGlu1 E60H/N264H mutant; Fig.1e): -0.01186
Ca2+ response of individual cells (source data Suppl Fig1), E60H/N264H (mGlu1 E60H/N264H mutant; single-cell values #1-#20, E60H/N264H): -0.009869 and -0.0139 and -0.008638 and -0.01472 and -0.009062 and -0.006669 and -0.004677 and -0.01493 and -0.004954 and 0.001138 and -0.005708 and -0.002215 and 0.01407 and 0.02235 and -0.01174 and -0.009823 and -0.008654 and -0.007631 and -0.02142 and -0.1201
Ca2+ response of individual cells (source data Suppl Fig1), Vec [1]: -0.01042 and -0.01834 and -0.01502 and -0.05052 and -0.04072 and -0.03065 and -0.02875 and -0.03001 and -0.006638 and -0.04038 and -0.04515 and -0.04559 and -0.05998 and -0.01618 and -0.0239 and -0.03979 and -0.02847 and -0.03687 and -0.04005 and -0.03582
Ca2+ response of individual cells (source data, sheet Suppl Fig1) [2]: -0.005954 and 0.01795 and 0.005315 and -0.02397 and -0.001754 and -0.003654
Ca2+ response (delta ratio), Vec [3]: -0.03216
Ca2+ response of individual cells (source data Suppl Fig1), A59H/A265H (mGlu1 A59H/A265H mutant [4]): 0.002869 and 0.004277 and -0.0003846 and 0.01228 and 0.01648 and -0.01175 and -0.03786 and 0.01586 and 0.002777 and 0.3308 and 0.2114 and -0.005654 and -0.02447 and 0.0205
Ca2+ response of individual cells (source data, sheet Suppl Fig1) [5]: 0.01055 and 0.01355 and -0.009131 and -0.01706 and 0.009777 and -0.01645
Ca2+ response (delta ratio), A59H/A265H (mGlu1 A59H/A265H mutant [6]): 0.02642
Ca2+ response of individual cells (source data Suppl Fig1), A59H/G266H (mGlu1 A59H/G266H mutant [7]): -0.01723 and 0.01558 and 0.01066 and 0.005608 and 0.01182 and 0.0279 and -0.1123 and -0.0058 and -0.01721 and 0.02262 and 0.01814 and -0.006169 and -0.01936 and 0.04175
Ca2+ response of individual cells (source data, sheet Suppl Fig1) [8]: 0.03353 and 0.009331 and 0.006908 and 0.01689 and -0.009408 and 0.005315
Ca2+ response (delta ratio), A59H/G266H (mGlu1 A59H/G266H mutant [9]): 0.001928
